Results reported in publication PMC9862227, “ATP and nucleic acids competitively modulate LLPS of the SARS-CoV2 nucleocapsid protein” (Communications Biology, 2023).

Molecular target: T1, N (1-249) (Severe acute respiratory syndrome coronavirus 2, UniProt P0DTC9)
T1 construct: fragment 1-249 of the 419-residue protein (IDR1, NTD, IDR2); pET-28a, N-terminal 6xHis-SUMO tag removed with TEV protease; E. coli BL21; 15N-labelled
Test: biochemical
Format: binding

Compound: Nc1ncnc2c1ncn2[C@@H]1O[C@H](COP(=O)(O)OP(=O)(O)OP(=O)(O)O)[C@@H](O)[C@H]1O [ATP]
- Kd: 2000 ± 200 µM
